Reference: ChEMBL document CHEMBL1909046, “DrugMatrix in vitro pharmacology data”

Legend:
[1] = target: T1, Nitric oxide synthase, inducible (Mus musculus, UniProt P29477); design: species or system Escherichia coli;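 note: inhibition of iNOS enzyme activity measured with L-arginine as substrate; in other assays of this panel Not Active means under 50% inhibition at 10 µM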
T1 sequence (P29477 whole entry): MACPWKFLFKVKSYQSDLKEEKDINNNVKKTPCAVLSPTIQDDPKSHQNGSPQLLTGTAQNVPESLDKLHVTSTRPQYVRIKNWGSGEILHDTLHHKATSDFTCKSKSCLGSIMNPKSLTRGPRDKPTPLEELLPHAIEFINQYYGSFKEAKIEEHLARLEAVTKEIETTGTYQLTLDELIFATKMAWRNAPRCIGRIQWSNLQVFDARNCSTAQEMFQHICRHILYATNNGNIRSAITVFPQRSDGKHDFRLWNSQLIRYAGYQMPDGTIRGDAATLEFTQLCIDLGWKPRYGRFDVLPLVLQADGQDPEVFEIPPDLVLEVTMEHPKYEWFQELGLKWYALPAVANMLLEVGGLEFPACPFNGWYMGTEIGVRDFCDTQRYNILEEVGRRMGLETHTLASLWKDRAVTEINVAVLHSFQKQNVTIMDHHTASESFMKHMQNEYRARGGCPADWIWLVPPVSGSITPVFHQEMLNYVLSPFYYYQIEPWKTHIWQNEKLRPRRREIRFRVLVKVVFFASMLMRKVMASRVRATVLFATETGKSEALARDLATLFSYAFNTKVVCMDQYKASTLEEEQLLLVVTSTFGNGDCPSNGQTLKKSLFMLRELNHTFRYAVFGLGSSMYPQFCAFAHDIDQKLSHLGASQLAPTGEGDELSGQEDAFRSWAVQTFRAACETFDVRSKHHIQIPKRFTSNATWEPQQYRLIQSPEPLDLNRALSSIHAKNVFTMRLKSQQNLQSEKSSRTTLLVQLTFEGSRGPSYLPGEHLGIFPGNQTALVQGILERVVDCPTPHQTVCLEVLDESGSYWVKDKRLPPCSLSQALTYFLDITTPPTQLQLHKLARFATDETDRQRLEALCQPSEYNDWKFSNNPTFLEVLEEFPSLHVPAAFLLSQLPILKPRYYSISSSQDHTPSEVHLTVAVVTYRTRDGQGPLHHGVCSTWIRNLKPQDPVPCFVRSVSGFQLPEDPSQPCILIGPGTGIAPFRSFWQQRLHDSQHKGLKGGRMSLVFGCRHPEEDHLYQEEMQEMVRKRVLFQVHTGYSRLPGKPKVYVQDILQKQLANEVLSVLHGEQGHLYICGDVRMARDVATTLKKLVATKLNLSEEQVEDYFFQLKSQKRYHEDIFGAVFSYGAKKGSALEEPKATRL

Substance-P receptor = Substance-P receptor (Homo sapiens, UniProt P25103); assay type: cell membranes, Membrane; settings: cho; note: in other assays of this panel Not Active means under 50% inhibition at 10 µM
Sequence of Substance-P receptor (P25103 whole entry): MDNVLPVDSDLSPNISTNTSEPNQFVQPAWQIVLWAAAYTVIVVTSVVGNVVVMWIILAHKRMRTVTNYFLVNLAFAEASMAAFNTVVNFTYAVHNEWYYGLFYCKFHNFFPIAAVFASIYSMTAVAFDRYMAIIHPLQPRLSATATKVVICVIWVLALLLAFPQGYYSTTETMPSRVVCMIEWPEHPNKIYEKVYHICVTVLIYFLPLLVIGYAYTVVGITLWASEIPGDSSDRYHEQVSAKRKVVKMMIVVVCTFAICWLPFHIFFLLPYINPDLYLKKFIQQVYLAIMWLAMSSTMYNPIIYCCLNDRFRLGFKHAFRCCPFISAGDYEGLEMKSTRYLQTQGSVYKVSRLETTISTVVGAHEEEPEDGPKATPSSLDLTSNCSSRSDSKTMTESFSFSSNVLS

D(4) dopamine receptor = target: T2, D(4) dopamine receptor (Homo sapiens, UniProt P21917); assay: DRUGMATRIX: Dopamine D4.2 radioligand binding (ligand: [3H] Spiperone); assay type: cell membranes, CHO-K1, Membrane; settings: cho-k1; Not Active = under 50% inhibition at 10 µM
T2 sequence (P21917 whole entry): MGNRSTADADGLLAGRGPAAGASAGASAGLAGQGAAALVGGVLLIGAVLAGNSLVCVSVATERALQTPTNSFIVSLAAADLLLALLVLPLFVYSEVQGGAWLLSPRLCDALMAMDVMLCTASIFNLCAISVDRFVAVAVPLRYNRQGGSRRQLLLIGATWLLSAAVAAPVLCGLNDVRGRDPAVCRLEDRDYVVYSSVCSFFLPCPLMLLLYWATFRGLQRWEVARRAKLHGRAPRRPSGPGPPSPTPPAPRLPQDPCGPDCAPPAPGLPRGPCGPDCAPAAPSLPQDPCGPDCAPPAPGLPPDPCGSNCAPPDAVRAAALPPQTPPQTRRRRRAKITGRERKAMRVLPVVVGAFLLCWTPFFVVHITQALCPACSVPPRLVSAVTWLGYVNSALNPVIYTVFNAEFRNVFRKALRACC

Caspase-1 = target: T3, Caspase-1 (Homo sapiens, UniProt P29466); design: species or system Escherichia coli;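 note: Caspase-1 enzyme inhibition assay with a peptide substrate; in other assays of this panel Not Active means under 50% inhibition at 10 µM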
T3 sequence (P29466 whole entry): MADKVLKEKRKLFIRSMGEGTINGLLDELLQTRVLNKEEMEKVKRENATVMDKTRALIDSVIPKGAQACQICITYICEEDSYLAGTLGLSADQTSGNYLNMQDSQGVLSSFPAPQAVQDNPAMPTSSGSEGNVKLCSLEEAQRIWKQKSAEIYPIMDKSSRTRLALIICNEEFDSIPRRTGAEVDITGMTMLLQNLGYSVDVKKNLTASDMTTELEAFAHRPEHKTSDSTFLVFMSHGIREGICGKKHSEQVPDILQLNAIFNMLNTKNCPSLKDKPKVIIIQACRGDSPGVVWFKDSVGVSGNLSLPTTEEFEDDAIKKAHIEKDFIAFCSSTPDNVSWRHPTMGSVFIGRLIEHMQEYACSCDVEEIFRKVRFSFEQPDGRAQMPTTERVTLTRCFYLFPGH

Cathepsin G = target: T4, Cathepsin G (Homo sapiens, UniProt P08311); assay type: tissue-based; settings: neutrophil;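 note: inhibition of Cathepsin G enzyme activity, tested on an AMC-conjugated peptide substrate; in other assays of this panel Not Active means under 50% inhibition at 10 µM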
T4 sequence (P08311 whole entry): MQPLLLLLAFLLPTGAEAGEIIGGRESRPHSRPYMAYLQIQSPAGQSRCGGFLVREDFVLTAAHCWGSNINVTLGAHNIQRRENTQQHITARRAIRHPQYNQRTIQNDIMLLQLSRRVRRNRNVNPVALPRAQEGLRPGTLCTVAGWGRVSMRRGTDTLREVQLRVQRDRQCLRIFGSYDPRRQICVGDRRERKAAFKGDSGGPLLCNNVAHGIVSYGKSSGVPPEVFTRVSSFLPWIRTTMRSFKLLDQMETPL

[2] = DRUGMATRIX: Sodium/nucleoside co-transporter radioligand binding (ligand: nitrobenzylthioinosine); assay type: cell membranes, Cavia porcellus, Dunkin-Hartley, Cerebral cortex, Membrane; settings: Not Active = under 50% inhibition at 10 µM
[3] = target: Sigma non-opioid intracellular receptor 1 (Homo sapiens, UniProt Q99720); assay: DRUGMATRIX: Sigma1 radioligand binding (ligand: [3H] Haloperidol); assay type: cell membranes, Jurkat, Membrane; settings: jurkat; Not Active = under 50% inhibition at 10 µM
Sequence of Sigma non-opioid intracellular receptor 1 (Q99720 whole entry): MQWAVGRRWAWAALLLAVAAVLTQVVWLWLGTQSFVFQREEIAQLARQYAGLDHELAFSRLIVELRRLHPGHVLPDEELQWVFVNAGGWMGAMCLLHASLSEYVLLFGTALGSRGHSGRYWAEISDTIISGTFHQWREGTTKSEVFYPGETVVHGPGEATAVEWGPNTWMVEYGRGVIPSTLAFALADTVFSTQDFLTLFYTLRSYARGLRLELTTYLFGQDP

COc1ccc(CN2CCNCC2)c(OC)c1OC [TRIMETAZIDINE]
Not Active: IC50 [1] | IC50 (Substance-P receptor) | IC50 (D(4) dopamine receptor) | IC50 (Caspase-1) | IC50 (Cathepsin G) | IC50 [2] | Ki [2] | IC50 [3]

COc1cc(C(=O)NS(=O)(=O)c2ccccc2C)ccc1Cc1cn(C)c2ccc(NC(=O)OC3CCCC3)cc12 [ZAFIRLUKAST]
Not Active: IC50 [1] | IC50 (Substance-P receptor) | IC50 (D(4) dopamine receptor) | IC50 (Caspase-1) | IC50 (Cathepsin G) | IC50 [2] | Ki [2] | IC50 [3]

CCCc1nn(C)c2c(=O)[nH]c(-c3cc(S(=O)(=O)N4CCN(C)CC4)ccc3OCC)nc12
Not Active: IC50 [1] | IC50 (Substance-P receptor) | IC50 (D(4) dopamine receptor) | IC50 (Caspase-1) | IC50 (Cathepsin G) | IC50 [2] | Ki [2] | IC50 [3]

CN[C@@H]1[C@H](O)[C@H](NC)[C@H]2O[C@@]3(O)C(=O)C[C@@H](C)O[C@H]3O[C@@H]2[C@H]1O [SPECTINOMYCIN]
Not Active: IC50 [1] | IC50 (Substance-P receptor) | IC50 (D(4) dopamine receptor) | IC50 (Caspase-1) | IC50 (Cathepsin G) | IC50 [2] | Ki [2] | IC50 [3]

CC(C)(C)NC[C@H](O)COc1nsnc1N1CCOCC1 [TIMOLOL]
Not Active: IC50 [1] | IC50 (Substance-P receptor) | IC50 (D(4) dopamine receptor) | IC50 (Caspase-1) | IC50 (Cathepsin G) | IC50 [2] | Ki [2] | IC50 [3]

O=P(O)(O)C(O)(Cc1cccnc1)P(=O)(O)O [RISEDRONIC ACID]
Not Active: IC50 [1] | IC50 (Substance-P receptor) | IC50 (D(4) dopamine receptor) | IC50 (Caspase-1) | IC50 (Cathepsin G) | IC50 [2] | Ki [2] | IC50 [3]

COc1ccc(/C=C/C(=O)Nc2ccccc2C(=O)O)cc1OC
Not Active: IC50 [1] | IC50 (Substance-P receptor) | IC50 (D(4) dopamine receptor) | IC50 (Caspase-1) | IC50 (Cathepsin G) | IC50 [2] | Ki [2] | IC50 [3]

CCOC(N)=O
Not Active: IC50 [1] | IC50 (Substance-P receptor) | IC50 (D(4) dopamine receptor) | IC50 (Caspase-1) | IC50 (Cathepsin G) | IC50 [2] | Ki [2] | IC50 [3]

C#CCN(C)[C@H](C)Cc1ccccc1 [SELEGILINE]
Not Active: IC50 [1] | IC50 (Substance-P receptor) | IC50 (D(4) dopamine receptor) | IC50 (Caspase-1) | IC50 (Cathepsin G) | IC50 [2] | Ki [2] | IC50 [3]

Nc1ccc(S(=O)(=O)Nc2ncccn2)cc1 [SULFADIAZINE]
Not Active: IC50 [1] | IC50 (Substance-P receptor) | IC50 (D(4) dopamine receptor) | IC50 (Caspase-1) | IC50 (Cathepsin G) | IC50 [2] | Ki [2] | IC50 [3]

C[C@@H]1C[C@H]2[C@@H]3CCC4=CC(=O)C=C[C@]4(C)C3=CC[C@]2(C)[C@H]1C(=O)CN1CCN(c2cc(N3CCCC3)nc(N3CCCC3)n2)CC1 [TIRILAZAD]
Not Active: IC50 [1] | IC50 (Substance-P receptor) | IC50 (D(4) dopamine receptor) | IC50 (Caspase-1) | IC50 (Cathepsin G) | IC50 [2] | Ki [2] | IC50 [3]

COc1ncnc(NS(=O)(=O)c2ccc(N)cc2)c1OC [SULFADOXINE]
Not Active: IC50 [1] | IC50 (Substance-P receptor) | IC50 (D(4) dopamine receptor) | IC50 (Caspase-1) | IC50 (Cathepsin G) | IC50 [2] | Ki [2] | IC50 [3]

STANNOUS FLUORIDE
Not Active: IC50 [1] | Ki [1] | IC50 (Substance-P receptor) | Ki (Substance-P receptor) | IC50 (D(4) dopamine receptor) | Ki (D(4) dopamine receptor) | IC50 (Caspase-1) | Ki (Caspase-1) | IC50 (Cathepsin G) | Ki (Cathepsin G) | IC50 [2] | Ki [2] | IC50 [3] | Ki [3]

CC1=C(CC(=O)O)c2cc(F)ccc2/C1=C\c1ccc(S(C)(=O)=O)cc1 [EXISULIND]
Not Active: IC50 [1] | IC50 (Substance-P receptor) | IC50 (D(4) dopamine receptor) | IC50 (Caspase-1) | IC50 (Cathepsin G) | IC50 [2] | Ki [2] | IC50 [3]

NC[C@H]1O[C@H](O[C@H]2[C@H](O)[C@@H](O[C@H]3O[C@H](CO)[C@@H](O)[C@H](N)[C@H]3O)[C@H](N)C[C@@H]2N)[C@H](N)C[C@@H]1O [TOBRAMYCIN]
Not Active: IC50 [1] | IC50 (Substance-P receptor) | IC50 (D(4) dopamine receptor) | IC50 (Caspase-1) | IC50 (Cathepsin G) | IC50 [2] | Ki [2] | IC50 [3]

O=C(O)C(Cl)(Cl)Cl [TRICHLOROACETIC ACID]
Not Active: IC50 [1] | IC50 (Substance-P receptor) | IC50 (D(4) dopamine receptor) | IC50 (Caspase-1) | IC50 (Cathepsin G) | IC50 [2] | Ki [2] | IC50 [3]
